Laboratory results taken from patent publication EP3552605A1 (priority 2018, dated 2019).
“Also recorded” adds a separate entry of the source. Where two headings read alike, the source gives them in different places.

Assays:
[1] = animal studies, cited from earlier work
delta opioid receptor = delta opioid receptor (Homo sapiens, UniProt P41143); conditions: cited from earlier work
[2] = tested on: parental (normal healthy) ARPE-1 cells; assay: toxicity towards parental ARPE-1 cells (GIEMSA staining, microscopy); format: cell-based, human; conditions: 10 µM, 48 hours; Figure 1
Description: (§1) hTERT RPE-1 human retinal epithelial cell line was obtained from ATTC. Cells were grown in DMEM medium (Sigma Aldrich) supplemented with 10% fetal bovine serum (FBS) and antibiotics (penicillin-streptomycin). MRC-5 human lung fibroblast cell line was obtained from ATTC. Cells were grown in DMEM (Sigma Aldrich) supplemented with 10% FBS and antibiotics (penicillin-streptomycin).
(§2) In human ARPE-1 human epithelial cells, senescence response - manifested by loss of proliferation, typical morphological changes and Senescence Associated Beta-galactosidase positivity - was induced by exposition to replication stress for prolonged time period. The induction involved 200nM aphidicolin continual treatment for three weeks. The senescent cells have been exposed to various doses of MCOPPB dissolved in water for 48 hours, the dose range spanned 100 nM - 50 µM. The number of surviving cells was evaluated immediately after the treatment either using GIMSA staining and microscopy-based evaluation of surviving cells and compared to parental exponentially growing ARPE-1 cells, which were exposed to MCOPPB as well. Control samples of senescent and parental cells, without MCOPPB treatment, were assessed, too. […]

kappa opioid receptor = kappa opioid receptor (Homo sapiens, UniProt P41145); conditions: cited from earlier work
Sequence of kappa opioid receptor (P41145 whole entry): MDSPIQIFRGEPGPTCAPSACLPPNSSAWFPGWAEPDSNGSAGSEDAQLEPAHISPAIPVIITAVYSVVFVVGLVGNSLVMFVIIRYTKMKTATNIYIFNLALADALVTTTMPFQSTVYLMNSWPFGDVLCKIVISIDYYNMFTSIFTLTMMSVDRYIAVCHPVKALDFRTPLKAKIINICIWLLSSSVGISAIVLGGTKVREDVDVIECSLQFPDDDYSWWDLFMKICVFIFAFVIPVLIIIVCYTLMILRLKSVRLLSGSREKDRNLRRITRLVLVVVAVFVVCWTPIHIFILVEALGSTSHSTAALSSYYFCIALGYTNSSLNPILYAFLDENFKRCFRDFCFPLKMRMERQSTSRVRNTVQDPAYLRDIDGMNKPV

mu opioid receptor = mu opioid receptor (Homo sapiens, UniProt P35372); conditions: cited from earlier work
Sequence of mu opioid receptor (P35372 whole entry, species assumed): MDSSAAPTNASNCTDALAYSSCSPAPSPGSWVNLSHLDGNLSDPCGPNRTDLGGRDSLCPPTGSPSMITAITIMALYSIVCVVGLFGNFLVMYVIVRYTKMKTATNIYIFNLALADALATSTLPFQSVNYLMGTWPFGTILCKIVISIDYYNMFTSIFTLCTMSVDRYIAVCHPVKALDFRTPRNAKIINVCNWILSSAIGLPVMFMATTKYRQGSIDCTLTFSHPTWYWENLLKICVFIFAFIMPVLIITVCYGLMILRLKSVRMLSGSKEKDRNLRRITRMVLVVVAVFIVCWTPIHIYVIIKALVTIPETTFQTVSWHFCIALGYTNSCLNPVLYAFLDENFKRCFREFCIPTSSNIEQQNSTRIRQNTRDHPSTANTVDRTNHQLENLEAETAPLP

[3] = p.o., cited from earlier work
[4] = biological target: T1, NOP receptor in the mouse brain (Mus musculus, UniProt P35377); conditions: 10 mg/kg, p.o.; ex vivo; cited from earlier work
T1 construct: from tissue; host or cells: mouse brain
T1 sequence (P35377 whole entry): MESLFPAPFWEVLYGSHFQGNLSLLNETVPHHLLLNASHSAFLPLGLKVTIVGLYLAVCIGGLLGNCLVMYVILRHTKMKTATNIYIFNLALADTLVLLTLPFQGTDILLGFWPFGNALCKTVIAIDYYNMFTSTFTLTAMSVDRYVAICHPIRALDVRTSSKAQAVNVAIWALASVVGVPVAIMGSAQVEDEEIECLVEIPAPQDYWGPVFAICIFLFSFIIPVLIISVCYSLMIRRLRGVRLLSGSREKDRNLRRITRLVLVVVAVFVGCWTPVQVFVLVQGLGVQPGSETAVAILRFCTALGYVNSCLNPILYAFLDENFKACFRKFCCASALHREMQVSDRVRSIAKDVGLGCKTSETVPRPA

[5] = oral dose of 10 mg/kg; cited from earlier work
senescent ARPE-1 cells = assay: toxicity towards senescent ARPE-1 cells (GIEMSA staining, microscopy); format: cell-based, human; conditions: 10 µM, 48 hours; senescence induced by 200nM aphidicolin for three weeks; Figure 1
Description: as §1, §2

senescent MRC5 cells = assay: toxicity towards senescent MRC5 cells (GIEMSA staining, microscopy); format: cell-based, human
Description: as §1
In human MRC-5 fibroblasts cells, senescence response - manifested by loss of proliferation, typical morphological changes and Senescence Associated Beta-galactosidase positivity - was induced by exposition to gamma radiation. The induction involved a single irradiation, total dose 15 Gy using Xstrahl RS 225 M RTG device set to 200KV 15mA (dose 3.8Gy/min). […] The number of surviving cells was evaluated immediately after the treatment either using GIMSA staining and microscopy-based evaluation of surviving cells and compared to parental exponentially growing MRC-5 cells.

[6] = tolerance of long term application in vivo; set-up: species or system mice (C57B1/6 strain); conditions: five weeks, regime 5 + 2, female mice aged 42 weeks
Description: Female mice (C57B1/6 strain) at the age of 42 weeks were treated by intraperitoneal application of MCOPPB (10 mg/kg and 20 mg/kg) dissolved in phosphate buffer or by the buffer alone (vehicle) for five weeks in the regime 5 + 2 (5 days with the treatment, two days without) and followed for another two weeks. The weight and another physiological factors reflecting overall fitness were monitored.

[7] = tested on: senescent cells (p16 positive cells); assay: elimination of senescent cells in p16 luciferase reporter mouse; format: in vivo
Description: Reporter GMO mouse with integrated luciferase reporter under p16 promoter allows monitoring of aging on the molecular level by an increase of luminescence signal due to the accumulation of senescent cells (this mouse model is described in details in: Cell. 2013 Jan 17;152(1-2):340-51). Application of senolytics targets the p16 positive cells and leads to decrease in the luminescent signal. Naturally aged reporter mice were treated by the MCOPPB compound and luminescence signal level was measured over time.

[8] = cited from earlier work
[9] = dose not stated; cited from earlier work

Sequence of delta opioid receptor (P41143 whole entry): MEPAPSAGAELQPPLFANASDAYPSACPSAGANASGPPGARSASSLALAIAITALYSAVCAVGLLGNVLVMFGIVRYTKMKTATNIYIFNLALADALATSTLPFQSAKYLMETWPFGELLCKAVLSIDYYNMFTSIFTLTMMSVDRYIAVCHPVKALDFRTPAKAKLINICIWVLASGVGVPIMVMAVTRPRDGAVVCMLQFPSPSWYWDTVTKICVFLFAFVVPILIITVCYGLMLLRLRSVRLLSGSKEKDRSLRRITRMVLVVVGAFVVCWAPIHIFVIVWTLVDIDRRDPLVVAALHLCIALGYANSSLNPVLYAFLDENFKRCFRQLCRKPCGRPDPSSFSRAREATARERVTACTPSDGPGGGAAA

Which sedative side effects ([1]; appear only at much higher doses than the effective anxiolytic dose range) does the source give for `CC1(N2CCC(n3c([C@@H]4CCCNC4)nc4ccccc43)CC2)CCCCCCC1` [MCOPPB, 1-[1-(1-methylcyclooctyl)-4-piperidinyl]-2-[(3R)-3-piperidinyl]-1H-benzimidazole] here?
Its sedative side effects is “only slight sedative side effects”.

What about the anxiolytic effects [1] of the same compound?
Its anxiolytic effects is “potent anxiolytic effects”.

And the “inhibition of memory or motor function” value [1]?
The value was “no inhibition of memory or motor function”.

What about the “binding at the delta opioid receptor” value (delta opioid receptor) of the same compound?
The value was “negligible binding”.

What about the “adverse effects on the parental cells” value [2] of the same compound?
Its value is “no adverse effects”.

What about the “affinity for the kappa opioid receptor” value (kappa opioid receptor) of the same compound?
The value was “weak affinity”.

What about the “affinity for the mu opioid receptor” value (mu opioid receptor) of the same compound?
The value was “moderate affinity”.

What about the anxiolytic-like effects ([3]; 10 mg/kg) of the same compound?
The anxiolytic-like effects was “elicited anxiolytic-like effects”.

And the “anxiolytic effect after repeated administration” value ([3]; 10 mg/kg, repeated administration for 5 days)?
Its value is “still effective as an anxiolytic agent”.

And the “shape of response curve” value [3]?
The value was “bell-shaped response curve”.

What about the “signaling through the NOP receptor in the mouse brain” value [4] of the same compound?
Its value is “inhibited signaling”.

And the locomotor activity [5]?
Its locomotor activity is “did not affect”.

What about the “toxicity towards the senescent cells” value (senescent ARPE-1 cells) of the same compound?
Its value is “cell deterioration and cell loss; also recorded: selective toxicity”.

What about the “toxicity towards the senescent cells” value (senescent MRC5 cells; 5 µM, 48 hours, senescence induced by gamma radiation 15 Gy, Figure 3) of the same compound?
The value was “selective toxicity”.

And the “toxicity towards the senescent cells” value (senescent MRC5 cells; 10µM for 48 hours (legend of Figure 3))?
The value was “cell deterioration and cell loss”.

What about the “tolerance by the animals” value ([6]; 10 mg/kg intraperitoneal) of the same compound?
The value was “well tolerated”.

And the “tolerance by the animals” value ([6]; 20 mg/kg intraperitoneal)?
The value was “well tolerated”.

What about the “whole body luminescent signals” value ([7]; 12-16 months old p16 reporter mice, treated for two weeks, versus vehicle, Figure 6) of the same compound?
The value was “decrease of the luminescence signal”.

What about the “whole body luminescent signal” value ([7]; 12 month old p16 reporter mouse, after three weeks of treatment, Figure 5) of the same compound?
Its value is “rapid decrease of the signal”.

What about the luminescence signal ([7]; naturally aged reporter mice, compared to controls, figures 5 and 6) of the same compound?
The luminescence signal was “decrease in the luminescence signal”.

And the memory ([8]; oral dose of 10 mg/kg)?
Its memory is “did not affect”.

Which results are given for `CN1C(=O)CN=C(c2ccccc2)c2cc(Cl)ccc21` [diazepam, reference compound]?
ethanol-induced hypnosis [9]: enhanced ethanol-induced hypnosis; anxiolytic-like effects ([3]; 3 mg/kg): elicited anxiolytic-like effects; memory ([8]; dose not stated): caused memory deficits
